Measurements reported in the supplement of paper PMC11061612.

Assays:
[1] = test system: RVH-421 (Melanoma); experiment: combination Emax (second highest fraction inhibited in the dose matrix, 72 h); higher = more inhibition; extreme values may be limits of the assay
Method in brief: (§1)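 Cell lines grown in DMEM/F12 or RPMI with 10% FBS were plated in 1536-well plates and held 24 hours at 37°C, 5% CO2 before 72 hours of exposure to two-drug dose matrices, with DMSO typically at 0.2%. CellTiter-Glo 2.0 luminescence gave viability, which was converted to inhibition. Vehicle wells were set to 0 and blank wells to 1. Combination Emax is the second-highest inhibition in the matrix, and Bliss excess is the observed combination effect minus the expected EA + EB − EA·EB, where EA and EB are the single-agent effects.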

[2] = test system: NCI-H2009 (Lung Adenocarcinoma); experiment: Bliss excess, mean over the matrix (fraction); higher = more synergy
Method in brief: as §1

[3] = test system: C2BBe1 (Colorectal Carcinoma); experiment: as above
Method in brief: as §1

[4] = test system: A375 (Melanoma); experiment: as above
Method in brief: as §1

[5] = test system: RVH-421 (Melanoma); experiment: as above
Method in brief: as §1

[6] = test system: CAL-85-1 (Breast Carcinoma); experiment: as above
Method in brief: as §1

[7] = test system: MRK-nu-1 (Breast Carcinoma); experiment: as above
Method in brief: as §1

[8] = test system: L-363 (Plasma Cell Myeloma); experiment: as above
Method in brief: as §1

[9] = test system: HT-144 (Melanoma); experiment: as above
Method in brief: as §1

[10] = test system: TOV-21G (Ovarian Carcinoma); experiment: as above
Method in brief: as §1

[11] = test system: JURL-MK1 (Chronic Myelogenous Leukemia); experiment: as above
Method in brief: as §1

[12] = test system: COR-L105 (Lung Adenocarcinoma); experiment: as above
Method in brief: as §1

[13] = test system: JJN-3 (Plasma Cell Myeloma); experiment: as above
Method in brief: as §1

[14] = test system: NCI-H1048 (Small Cell Lung Carcinoma); experiment: as above
Method in brief: as §1

[15] = test system: GRANTA-519 (B-Cell Non-Hodgkin's Lymphoma); experiment: as above
Method in brief: as §1

[16] = test system: NCI-H2452 (Mesothelioma); experiment: as above
Method in brief: as §1

[17] = test system: SNU-1 (Gastric Carcinoma); experiment: as above
Method in brief: as §1

[18] = test system: NCI-H835 (Other Solid Carcinomas); experiment: as above
Method in brief: as §1
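Wherever Bliss excess, mean over the matrix is given: after 72 h of two-drug dosing.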

SMILES	combination Emax [1]	Bliss excess [2]	Bliss excess [3]	Bliss excess [4]	Bliss excess [5]	Bliss excess [6]	Bliss excess [7]	Bliss excess [8]	Bliss excess [9]	Bliss excess [10]	Bliss excess [11]	Bliss excess [12]	Bliss excess [13]	Bliss excess [14]	Bliss excess [15]	Bliss excess [16]	Bliss excess [17]	Bliss excess [18]
C=CCn1c(=O)c2cnc(Nc3ccc(N4CCN(C)CC4)cc3)nc2n1-c1cccc(C(C)(C)O)n1 [AZD1775] + C[C@@H]1COCCN1C2=NC(=NC(=C2)C3(CC3)[S@](=N)(=O)C)C4=C5C=CNC5=NC=C4 [AZD6738] (first compound max 1 µM, partner max 10 µM)	0.213	0.0987	0.0278	0.0154	-0.0495	-0.0511	0.0633	0.0474	-0.0482	-0.0523	0.0515	-0.0411	0.0559	0.0582	0.0068	-0.0518	–	–
CN(CCO)CC[C@H](CSc1ccccc1)Nc1ccc(S(=O)(=O)NC(=O)c2ccc(N3CCC([C@@H](O)c4ccccc4-c4ccc(Cl)cc4)CC3)cc2)cc1S(=O)(=O)C(F)(F)F [AZD4320] + C=CCn1c(=O)c2cnc(Nc3ccc(N4CCN(C)CC4)cc3)nc2n1-c1cccc(C(C)(C)O)n1 [AZD1775] (first compound max 1 µM, partner max 1 µM)	0.442	–	-0.0286	0.0133	0.0274	0.0019	-0.0295	0.032	0.0392	-0.0299	0.0098	0.0129	-0.0535	0.27	0.0729	0.0257	0.127	–
CN(CCO)CC[C@H](CSc1ccccc1)Nc1ccc(S(=O)(=O)NC(=O)c2ccc(N3CCC([C@@H](O)c4ccccc4-c4ccc(Cl)cc4)CC3)cc2)cc1S(=O)(=O)C(F)(F)F [AZD4320] + Cn1cnc2c(F)c(Nc3ccc(Br)cc3Cl)c(C(=O)NOCCO)cc21 [Selumetinib] (first compound max 1 µM, 7x7, partner max 3 µM)	0.643	-0.006	0.0082	-0.0112	0.106	-0.0492	-0.0013	0.0311	0.15	0.0593	0.0111	0.0181	–	0.0198	0.0155	-0.0688	0.0212	–
NC1(C(=O)N[C@@H](CCO)c2ccc(Cl)cc2)CCN(c2ncnc3[nH]ccc23)CC1 [Capivasertib] + CC(C)n1c(=O)n(C)c2cnc3cc(F)c(-c4ccc(OCCCN5CCCCC5)nc4)cc3c21 [AZD1390] (first compound max 10 µM, 7x7, partner max 0.3 µM)	–	-0.0648	-0.0856	-0.0496	–	-0.0213	-0.0985	-0.0749	-0.0688	-0.0076	-0.0489	-0.0635	-0.0105	-0.037	-0.0859	-0.0922	-0.079	-0.179
NC1(C(=O)N[C@@H](CCO)c2ccc(Cl)cc2)CCN(c2ncnc3[nH]ccc23)CC1 [Capivasertib] + CCN(CCO)CCCOc1ccc2c(Nc3cc(CC(=O)Nc4cccc(F)c4)[nH]n3)ncnc2c1 [AZD2811] (first compound max 10 µM, 7x7, partner max 1 µM)	–	0.0001	-0.0382	-0.0008	–	-0.0241	0.0481	-0.0235	-0.0195	0.0123	0.0026	-0.0523	-0.0148	-0.0003	0.0258	-0.079	0.0214	-0.103
NC1(C(=O)N[C@@H](CCO)c2ccc(Cl)cc2)CCN(c2ncnc3[nH]ccc23)CC1 [Capivasertib] + COc1nnc2ccc(N3CCC(c4ccc(OCCN5CCN(C)C(=O)[C@H]5C)cc4)CC3)nn12 [AZD5153] (first compound max 10 µM, 7x7, partner max 1 µM)	–	0.0374	-0.0365	0.009	–	0.0009	0.0058	0.108	0.0653	0.0011	0.0101	0.0024	-0.0242	0.0588	-0.0148	-0.0192	0.0177	0.0792
NC1(C(=O)N[C@@H](CCO)c2ccc(Cl)cc2)CCN(c2ncnc3[nH]ccc23)CC1 [Capivasertib] + C[C@@H]1COCCN1C2=NC(=NC(=C2)C3(CC3)[S@](=N)(=O)C)C4=C5C=CNC5=NC=C4 [AZD6738] (first compound max 10 µM, 7x7, partner max 10 µM)	–	-0.0483	-0.0722	-0.0239	–	-0.0062	0.0032	-0.0201	-0.0292	-0.0241	0.0117	-0.034	-0.0181	-0.0204	-0.0136	-0.0827	0.0135	-0.072
NC1(C(=O)N[C@@H](CCO)c2ccc(Cl)cc2)CCN(c2ncnc3[nH]ccc23)CC1 [Capivasertib] + Cn1cnc2c(F)c(Nc3ccc(Br)cc3Cl)c(C(=O)NOCCO)cc21 [Selumetinib] (first compound max 10 µM, 7x7, partner max 10 µM)	–	-0.0191	-0.0036	0.0344	–	-0.0429	0.0218	0.0156	0.0042	0.0122	0.0263	-0.0333	0.0565	0.0363	-0.0205	-0.092	0.0764	-0.027
CS(=O)(=O)CCNCc1ccc(-c2ccc3ncnc(Nc4ccc(OCc5cccc(F)c5)c(Cl)c4)c3c2)o1 [Lapatinib] + C[C@@H](Oc1cc(-c2cnn(C3CCNCC3)c2)cnc1N)c1c(Cl)ccc(F)c1Cl [Crizotinib] (first compound max 10 µM, 7x7, partner max 10 µM)	–	-0.0506	-0.018	-0.0461	–	0.0028	0.0477	-0.0208	-0.0643	-0.0289	0.003	-0.004	-0.0287	-0.0255	0.0192	-0.0932	0.0039	-0.117
CC(=O)c1c(C)c2cnc(Nc3ccc(N4CCNCC4)cn3)nc2n(C2CCCC2)c1=O [Palbociclib] + CC1(C)CCC(CN2CCN(c3ccc(C(=O)NS(=O)(=O)c4ccc(NCC5CCOCC5)c([N+](=O)[O-])c4)c(Oc4cnc5[nH]ccc5c4)c3)CC2)=C(c2ccc(Cl)cc2)C1 [Venetoclax] (first compound max 10 µM, 7x7, partner max 1 µM)	–	-0.0543	-0.0656	-0.0197	–	-0.0457	-0.0262	-0.0262	-0.0356	-0.025	-0.0716	-0.0399	-0.0357	-0.0339	0.0884	-0.0188	0.0006	-0.143
CC(=O)c1c(C)c2cnc(Nc3ccc(N4CCNCC4)cn3)nc2n(C2CCCC2)c1=O [Palbociclib] + Cc1c2c(nn1C)CSCc1cc(n(C)n1)CSc1cc(c3ccccc3c1)OCCCc1c(C(=O)O)n(C)c3c-2c(Cl)ccc13 [AZD5991] (first compound max 10 µM, 7x7, partner max 1 µM)	–	-0.0567	-0.0782	-0.0057	–	-0.0101	-0.0869	-0.0147	-0.0757	-0.0439	-0.112	-0.0088	-0.0434	-0.0904	0.0039	-0.0651	-0.0691	-0.0004
CC(=O)c1c(C)c2cnc(Nc3ccc(N4CCNCC4)cn3)nc2n(C2CCCC2)c1=O [Palbociclib] + Cn1cnc2c(F)c(Nc3ccc(Br)cc3Cl)c(C(=O)NOCCO)cc21 [Selumetinib] (first compound max 10 µM, 7x7, partner max 10 µM)	–	-0.0264	-0.0273	0.0027	–	-0.0218	0.0259	0.0127	-0.0029	-0.0259	0.0361	-0.0355	-0.0244	-0.0449	-0.0386	-0.0682	0.067	-0.0551
Cn1cnc2c(F)c(Nc3ccc(Br)cc3Cl)c(C(=O)NOCCO)cc21 [Selumetinib] + C=CCn1c(=O)c2cnc(Nc3ccc(N4CCN(C)CC4)cc3)nc2n1-c1cccc(C(C)(C)O)n1 [AZD1775] (first compound max 10 µM, partner max 1 µM)	–	0.0308	-0.0398	-0.0187	–	-0.063	-0.0289	-0.0042	-0.0127	-0.0891	0.0067	0.0203	-0.0188	-0.0564	0.03	-0.0288	-0.005	-0.0223
Cn1cnc2c(F)c(Nc3ccc(Br)cc3Cl)c(C(=O)NOCCO)cc21 [Selumetinib] + CC(C)n1c(=O)n(C)c2cnc3cc(F)c(-c4ccc(OCCCN5CCCCC5)nc4)cc3c21 [AZD1390] (first compound max 10 µM, 7x7, partner max 0.3 µM)	–	-0.0254	-0.05	-0.0271	–	-0.0039	0.0225	-0.0252	-0.0653	-0.0336	-0.0296	0.0019	0.0046	-0.0372	-0.0254	-0.0732	0.025	-0.0464
Cn1cnc2c(F)c(Nc3ccc(Br)cc3Cl)c(C(=O)NOCCO)cc21 [Selumetinib] + CCN(CCO)CCCOc1ccc2c(Nc3cc(CC(=O)Nc4cccc(F)c4)[nH]n3)ncnc2c1 [AZD2811] (first compound max 10 µM, 7x7, partner max 1 µM)	–	-0.0059	-0.0439	-0.0274	–	0.0353	0.045	-0.0194	0.0172	0.0139	0.0645	0.0147	0.0552	-0.0121	0.0288	-0.0726	0.0767	-0.0289
Cn1cnc2c(F)c(Nc3ccc(Br)cc3Cl)c(C(=O)NOCCO)cc21 [Selumetinib] + C[C@@H]1COCCN1C2=NC(=NC(=C2)C3(CC3)[S@](=N)(=O)C)C4=C5C=CNC5=NC=C4 [AZD6738] (first compound max 10 µM, 7x7, partner max 10 µM)	–	-0.0313	-0.052	0.0189	–	0.0508	-0.0317	-0.0207	-0.0011	0.0142	0.0095	0.0306	0.0533	0.0132	0.0067	-0.0476	0.0537	-0.0375
